Counter-ions that a name gives are not always drawn. Like-named read-outs stand apart in the source and are kept apart here.
How the values were obtained:
[1] = molecular target: T1, ^14C-Acetat-Einbau in die mit Digitonin fällbaren Steroide (Homo sapiens, UniProt P48449); test: Inhibition of 14C-acetate incorporation into digitonin-precipitable steroids; type: cell-based; conditions: read-out: Prozentwerte, um die die Verbindungen den ^14C-Acetat-Einbau hemmen
T1 sequence (P48449 2-732): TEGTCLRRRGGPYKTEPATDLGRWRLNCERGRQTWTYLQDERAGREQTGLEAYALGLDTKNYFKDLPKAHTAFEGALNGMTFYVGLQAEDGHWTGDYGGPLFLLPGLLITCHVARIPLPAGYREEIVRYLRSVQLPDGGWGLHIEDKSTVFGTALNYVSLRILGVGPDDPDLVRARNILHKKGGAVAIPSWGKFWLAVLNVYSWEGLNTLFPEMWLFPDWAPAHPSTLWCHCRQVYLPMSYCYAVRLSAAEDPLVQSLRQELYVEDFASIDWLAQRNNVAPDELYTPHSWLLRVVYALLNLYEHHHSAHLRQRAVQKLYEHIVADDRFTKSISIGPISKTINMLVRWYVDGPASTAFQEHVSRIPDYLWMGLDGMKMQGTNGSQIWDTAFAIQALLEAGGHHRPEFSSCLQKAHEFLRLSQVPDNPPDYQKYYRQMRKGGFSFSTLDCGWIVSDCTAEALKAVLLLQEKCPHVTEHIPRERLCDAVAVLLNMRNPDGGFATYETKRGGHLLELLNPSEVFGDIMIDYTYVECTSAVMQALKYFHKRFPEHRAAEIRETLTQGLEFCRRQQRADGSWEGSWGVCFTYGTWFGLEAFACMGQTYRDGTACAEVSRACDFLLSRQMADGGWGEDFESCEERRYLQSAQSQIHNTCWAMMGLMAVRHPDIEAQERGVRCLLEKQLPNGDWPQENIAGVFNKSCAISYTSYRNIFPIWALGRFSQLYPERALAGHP
Description: I. Messung der Hemmung des ^14C-Acetat-Einbaus in die mit Digitonin fällbaren Steroide:
Die Untersuchung der Hemmwirkung wurde nach der in J. Lipid. Res. 37, 148-157 [1996] beschriebenen Methode bei Testkonzentrationen von 10^-8 und 10^-9 Mol/l durchgeführt.
Die Prozentwerte, um die obigen Verbindungen den ^14C-Acetat-Einbau hemmen, sind in Tabelle 1 angegeben.

[2] = test system: 2,3-Epoxisqualen-Lanosterol-Cyclase; test: In-vivo effect in the rat after oral administration: 2,3-epoxysqualene level in the liver; set-up: species or system Ratte
Description: II. Messung der in-vivo Wirkung an der Ratte nach oraler Gabe
Die Inhibierung des Enzyms 2,3-Epoxisqualen-Lanosterol-Cyclase bewirkt eine Erhöhung der 2,3-Epoxisqualenspiegel in Leber und Plasma. Die Menge an gebildetem 2,3-Epoxisqualen dient daher als direktes Maß für die Wirkstärke am Ganztier.Die Bestimmung wurde nach der in J. Lipid. Res. 38, 564-575, [1997] beschriebenen Methode nach t = 3 bzw. 8 Stunden nach Substanzgabe mit Konzentrationen von c = 0.01, 0.03, 0.1, 0.3 und 1.0 mg/kg durchgeführt. In der folgenden Tabelle 3 sind beispielhaft die Ergebnisse für die vorstehend erwähnten Substanzen A, B, C, D, E, G, H, I und K angegeben.

[3] = test system: Asp. niger ATCC 16404; test: Fungistatic effect, serial dilution test (microtitre system); type: cell-based; conditions: Aspergillus niger
Description: (§1) IV. Bestimmung der fungistatischen Wirkung
(§2) Die fungistatische Wirkung wurde über den Reihenverdünnungstest (Mikrotitersystem) bestimmt. Als Nährmedium diente Sabouraud-Bouillon. Das Inoculum betrug ca. 10^4 bis 10^5 KBE/ml (KBE = koloniebildende Einheiten); die Bebrütungszeit betrug 2 bis 4 Tage bei 26°C.
(§3) Es wurde die niedrigste Konzentration, die sichtbares Wachstum nicht mehr zuließ (minimale Hemmkonzentration MHK), bestimmt.
(§4) Geprüft wurden die vorstehend erwähnten Verbindungen A, B, D, E, F, H, I, K, L und M. Die Ergebnisse sind in der folgenden Tabelle 5 zusammengefaßt. Die MHK ist in µg/ml angegeben.

[4] = test system: Cand. albicans ATCC 10231; test: as above; type: cell-based; conditions: Candida albicans
Description: as §1, §2, §3, §4

[5] = test system: Pen.notatum CBS 19746; test: as above; type: cell-based; conditions: Penicillium chrysogenum
Description: as §1, §2, §3, §4

[6] = test system: Rhod. rubra 49; test: as above; type: cell-based; conditions: read-out: MHK
Description: as §1, §2, §3, §4

[7] = test system: Sacch. carlsbergensis ATCC 9080; test: as above; type: cell-based; conditions: Saccharomyces pastorianus
Description: as §1, §2, §3, §4

[8] = test system: Trich. mentagrophytes ATCC 9129; test: as above; type: cell-based; conditions: Trichophyton mentagrophytes
Description: as §1, §2, §3, §4

[9] = ATCC16404, Asp., Sabouraud-Bouillon, 2 bis 4 Tage bei 26°C, read-out: MHK
[10] = ATCC10231, Cand., Sabouraud-Bouillon, 2 bis 4 Tage bei 26°C, read-out: MHK
[11] = CBS19746, Pen., Sabouraud-Bouillon, 2 bis 4 Tage bei 26°C, read-out: MHK
[12] = Rhod., Sabouraud-Bouillon, 2 bis 4 Tage bei 26°C
[13] = ATCC9080, Sacc., Sabouraud-Bouillon, 2 bis 4 Tage bei 26°C, read-out: MHK
[14] = ATCC9129, Trich., Sabouraud-Bouillon, 2 bis 4 Tage bei 26°C, read-out: MHK

SMILES | inhibition at 0.01 µM ([1]; Testkonzentration 10^-8 Mol/l) [%] | inhibition at 0.001 µM ([1]; Testkonzentration 10^-9 Mol/l) [%] | 2,3-Epoxysqualen-Konzentration in der Leber (Ratte) ([2]; c = 0.3 mg/kg, t = 3 h) [µg/g] | 2,3-Epoxysqualen-Konzentration in der Leber (Ratte) ([2]; c = 0.3 mg/kg, t = 8 h) [µg/g] | 2,3-Epoxysqualen-Konzentration in der Leber (Ratte) ([2]; c = 1.0 mg/kg, t = 3 h) [µg/g] | 2,3-Epoxysqualen-Konzentration in der Leber (Ratte) ([2]; c = 1.0 mg/kg, t = 8 h) [µg/g] | MIC [3, 9] [µg/mL] | MIC [4, 10] [µg/mL] | MIC [5, 11] [µg/mL] | MIC [6, 12] [µg/mL] | MIC [7, 13] [µg/mL] | MIC [8, 14] [µg/mL] | 2,3-Epoxysqualen-Konzentration in der Leber (Ratte) ([2]; c = 0.01 mg/kg, t = 3 h) [µg/g] | 2,3-Epoxysqualen-Konzentration in der Leber (Ratte) ([2]; c = 0.01 mg/kg, t = 8 h) [µg/g] | 2,3-Epoxysqualen-Konzentration in der Leber (Ratte) ([2]; c = 0.1 mg/kg, t = 3 h) [µg/g] | 2,3-Epoxysqualen-Konzentration in der Leber (Ratte) ([2]; c = 0.1 mg/kg, t = 8 h) [µg/g] | other results
CN(C)Cc1ccc(C(=O)C2CCN(C(=S)SCc3ccccc3)CC2)cc1.Cl [B, N-(Benzylthio) thiocarbonyl-4-[4-(dimethylaminomethyl)benzoyl]piperidin-hydrochlorid] | 85 | 47 | 4.5 | 5.8 | 39.2 | 42.0 | 32 | 64 | 8 | 16 | 32 | 2 |  |  |  |  | 
CN(C)Cc1ccc(SC2CCN(C(=O)OCc3ccccc3)CC2)cc1.Cl [C, N-Benzyloxycarbonyl-4-[4-(dimethylaminomethyl)phenylthio]-piperidin-hydrochlorid] | 78 | 57 | 0.5 | 1.8 | 3.8 | 2.0 |  |  |  |  |  |  | 0.6 | 3.0 | 0.5 | 1.3 | 
CN(C)Cc1ccc(SC2CCN(C(=O)Oc3ccc(Cl)cc3)CC2)cc1 [D, N-(4-Chlorphenoxy)carbonyl-4-[4-(dimethylaminomethyl)-phenylthio]piperidin-hydrochlorid] |  |  |  |  |  |  |  |  |  |  |  |  | 1.3 | 1.0 | 1.4 | 1.8 | inhibition at 0.001 µM [1]: 55%; inhibition at 0.01 µM [1]: 86%; MIC ([3]; ATCC16404, read-out: MHK): 256 µg/mL; MIC ([4]; ATCC10231, read-out: MHK): 64 µg/mL; MIC ([5]; CBS19746, read-out: MHK): 128 µg/mL; MIC [6]: 64 µg/mL; MIC ([7]; ATCC9080, read-out: MHK): 128 µg/mL; MIC ([8]; ATCC9129, read-out: MHK): 16 µg/mL
CN(C)Cc1ccc(CC2CCN(C(=S)SCc3ccccc3)CC2)cc1.Cl [E, N-(Benzylthio)thiocarbonyl-4-[4-(dimethylaminomethyl)-benzyl]piperidin-hydrochlorid] | 87 | 47 |  |  |  |  | 8 | 16 | 1 | 4 | 16 | 1 | 0.9 | 1.0 | 5.6 | 4.4 | 
CN(C)Cc1ccc(C=C2CCN(C(=S)SCc3ccccc3)CC2)cc1.Cl [F, N-(Benzylthio)thiocarbonyl-4-[4-(dimethylaminomethyl)-benzyliden]piperidin-hydrochlorid] | 84 | 45 |  |  |  |  | 8 | 16 | 4 | 4 | 16 | 2 |  |  |  |  | 
CN(C)Cc1ccc(CC2CCN(C(=S)Oc3ccc(Cl)cc3)CC2)cc1 [G, N-(4-Chlorphenoxy)thiocarbonyl-4-[4-(dimethylaminomethyl)-benzyl]piperidin-hydrochlorid] | 83 | 56 |  |  | 87.4 | 134.2 |  |  |  |  |  |  |  |  | 10.3 | 11.5 | 
Cc1ccc(OC(=S)N2CCC(Cc3ccc(CN(C)C)cc3)CC2)cc1.Cl [L, 4-[4-(Dimethylaminomethyl)benzyl] -N-(4-methylphenoxy) - thiocarbonylpiperidin-hydrochlorid] | 88 | 64 |  |  |  |  | 64 | 32 | 32 | 8 | 64 | 1 |  |  |  |  | 
CN(C)Cc1ccc([C@H]2CC[C@H](N(C)C(=O)c3ccc(Cl)cc3)CC2)cc1 [V, reference compound] | 59 | 23 |  |  |  |  |  |  |  |  |  |  |  |  |  |  | 
CN(C)Cc1ccc(SC2CCN(C(=S)SCc3ccccc3)CC2)cc1.Cl [Verbindung A, N-(Benzylthio)thiocarbonyl-4-[4-(dimethylaminomethyl)-phenylthio]piperidin-hydrochlorid] | 85 | 53 | 2.0 | 1.2 | 9.3 | 9.8 | 8 | 16 | 4 | 16 | 8 | 1 |  |  |  |  | 
Cc1ccc(CC(=O)O[C@H]2CC[C@H](c3ccc(CN(C)C)cc3)CC2)cc1 [W, trans-O-(p-Tolylacetyl)-4-(4-dimethylaminomethylphenyl)-cyclohexanol, reference compound] | 72 | 21 |  |  |  |  |  |  |  |  |  |  |  |  |  |  | 

From EP1060162B1, “URETHANES DERIVED FROM AZACYCLOALKANES, THIO AND DITHIO ANALOGUES, PRODUCTION AND USE THEREOF AS 2,3 EPOXYSQUALENE LANESTEROL CYCLASE INHIBITORS” (Boehringer Ingelheim Pharma KG, priority 1997, dated 1999)
